Molecular target: Ras-related protein Rab-2A (Canis lupus familiaris) (UniProt P61105)
Test: Rab2 wildtype GTP-binding inhibitors, dose response, biochemical, GST-Rab2 beads, Bodipy-FL-GTP, flow cytometry, multiplex (AID 1337)
Conditions: Bead-bound GST-Rab2 wt

EC50 [µM]	SMILES
1.99	COC(=O)c1c(N2C(=O)[C@H]3[C@@H](C2=O)[C@]2(C(=O)Nc4c(C)cc(C)cc42)N2CCC[C@@H]32)sc(C)c1C
26.3	OC(CNCCC1C=Nc2ccccc21)Cn1c2ccc(Cl)cc2c2cc(Cl)ccc21 (stereo not drawn)
4.02	O=[N+]([O-])c1cc2oc3c(c2c(C=NCc2ccccc2)c1O)CCCC3

Reference: PubChem BioAssay AID1337 (NMMLSC, 2008)
